Measurements from ChEMBL document CHEMBL3414512, “Discovery of orally active anticancer candidate CFI-400945 derived from biologically promising spirooxindoles: success and challenges” (Eur J Med Chem, 2015).

Experiments:
[1] = Inhibition of SLC34A2/ROS (unknown origin); parameters: species or system Homo sapiens
[2] = molecular target: Serine/threonine-protein kinase PLK1 (Homo sapiens, UniProt P53350); assay: Inhibition of PLK-1 (unknown origin)
[3] = molecular target: Fibroblast growth factor receptor 1 (Homo sapiens, UniProt P11362); assay: Inhibition of FGFR1 (unknown origin)
Sequence of Fibroblast growth factor receptor 1 (P11362 whole entry): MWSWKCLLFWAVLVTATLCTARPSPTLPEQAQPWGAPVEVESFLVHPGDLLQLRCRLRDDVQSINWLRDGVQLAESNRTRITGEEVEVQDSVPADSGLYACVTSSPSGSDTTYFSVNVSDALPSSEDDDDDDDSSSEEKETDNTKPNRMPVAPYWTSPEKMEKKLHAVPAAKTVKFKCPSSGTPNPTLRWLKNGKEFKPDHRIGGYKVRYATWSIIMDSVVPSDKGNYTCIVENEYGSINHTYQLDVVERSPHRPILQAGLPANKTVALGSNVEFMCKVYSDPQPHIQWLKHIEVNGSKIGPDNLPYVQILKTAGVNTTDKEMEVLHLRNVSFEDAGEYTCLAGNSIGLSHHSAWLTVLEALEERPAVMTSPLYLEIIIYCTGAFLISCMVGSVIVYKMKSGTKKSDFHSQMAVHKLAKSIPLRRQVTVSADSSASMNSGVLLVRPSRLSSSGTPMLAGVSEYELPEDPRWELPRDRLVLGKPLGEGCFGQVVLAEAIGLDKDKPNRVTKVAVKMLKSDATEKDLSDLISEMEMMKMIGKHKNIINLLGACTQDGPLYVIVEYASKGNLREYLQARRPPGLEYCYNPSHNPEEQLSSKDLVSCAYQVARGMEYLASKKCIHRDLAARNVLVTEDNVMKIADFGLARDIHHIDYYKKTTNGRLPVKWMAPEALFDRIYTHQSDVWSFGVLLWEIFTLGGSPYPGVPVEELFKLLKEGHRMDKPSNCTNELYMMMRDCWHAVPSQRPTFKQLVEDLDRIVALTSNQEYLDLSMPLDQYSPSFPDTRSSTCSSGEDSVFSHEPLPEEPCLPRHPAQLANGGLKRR

[4] = molecular target: Serine/threonine-protein kinase PLK2 (Homo sapiens, UniProt Q9NYY3); assay: Inhibition of PLK-2 (unknown origin)
Sequence of Serine/threonine-protein kinase PLK2 (Q9NYY3 whole entry): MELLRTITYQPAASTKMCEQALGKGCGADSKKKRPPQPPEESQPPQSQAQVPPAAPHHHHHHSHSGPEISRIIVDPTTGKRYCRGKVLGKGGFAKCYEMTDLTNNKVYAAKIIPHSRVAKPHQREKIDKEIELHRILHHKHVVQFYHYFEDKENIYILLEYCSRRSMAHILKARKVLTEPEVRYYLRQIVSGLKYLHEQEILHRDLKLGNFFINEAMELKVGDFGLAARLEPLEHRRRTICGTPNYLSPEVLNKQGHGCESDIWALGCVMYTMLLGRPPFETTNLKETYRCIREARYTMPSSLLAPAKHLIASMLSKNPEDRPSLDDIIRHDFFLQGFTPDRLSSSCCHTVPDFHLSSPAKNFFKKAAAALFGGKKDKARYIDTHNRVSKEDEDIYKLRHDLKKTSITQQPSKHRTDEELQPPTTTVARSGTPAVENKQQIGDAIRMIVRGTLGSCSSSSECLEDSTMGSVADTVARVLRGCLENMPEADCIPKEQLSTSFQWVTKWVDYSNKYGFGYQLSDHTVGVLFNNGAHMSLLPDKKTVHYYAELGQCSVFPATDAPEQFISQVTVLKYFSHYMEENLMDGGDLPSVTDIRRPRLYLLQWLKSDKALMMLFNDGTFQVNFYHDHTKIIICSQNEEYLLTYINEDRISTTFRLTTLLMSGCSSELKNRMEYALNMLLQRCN

[5] = molecular target: Serine/threonine-protein kinase PLK3 (Homo sapiens, UniProt Q9H4B4); assay: Inhibition of PLK-3 (unknown origin)
Sequence of Serine/threonine-protein kinase PLK3 (Q9H4B4 whole entry): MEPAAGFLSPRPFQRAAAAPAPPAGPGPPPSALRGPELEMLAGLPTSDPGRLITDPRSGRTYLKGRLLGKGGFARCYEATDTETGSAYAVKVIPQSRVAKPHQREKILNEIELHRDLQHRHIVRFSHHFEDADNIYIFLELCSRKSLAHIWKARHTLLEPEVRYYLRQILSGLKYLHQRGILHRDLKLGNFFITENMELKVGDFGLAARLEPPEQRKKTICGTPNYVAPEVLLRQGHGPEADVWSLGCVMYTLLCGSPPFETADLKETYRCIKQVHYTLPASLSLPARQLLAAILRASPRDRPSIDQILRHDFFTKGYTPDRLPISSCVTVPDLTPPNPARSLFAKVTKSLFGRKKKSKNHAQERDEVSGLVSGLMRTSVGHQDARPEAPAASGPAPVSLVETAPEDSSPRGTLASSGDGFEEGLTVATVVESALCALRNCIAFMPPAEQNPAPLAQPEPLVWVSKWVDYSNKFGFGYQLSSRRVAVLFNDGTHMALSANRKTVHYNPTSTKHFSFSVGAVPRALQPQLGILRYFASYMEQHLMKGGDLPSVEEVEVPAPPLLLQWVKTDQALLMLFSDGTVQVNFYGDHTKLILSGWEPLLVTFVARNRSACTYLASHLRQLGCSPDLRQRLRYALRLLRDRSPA

Sequence of Serine/threonine-protein kinase PLK1 (P53350 whole entry): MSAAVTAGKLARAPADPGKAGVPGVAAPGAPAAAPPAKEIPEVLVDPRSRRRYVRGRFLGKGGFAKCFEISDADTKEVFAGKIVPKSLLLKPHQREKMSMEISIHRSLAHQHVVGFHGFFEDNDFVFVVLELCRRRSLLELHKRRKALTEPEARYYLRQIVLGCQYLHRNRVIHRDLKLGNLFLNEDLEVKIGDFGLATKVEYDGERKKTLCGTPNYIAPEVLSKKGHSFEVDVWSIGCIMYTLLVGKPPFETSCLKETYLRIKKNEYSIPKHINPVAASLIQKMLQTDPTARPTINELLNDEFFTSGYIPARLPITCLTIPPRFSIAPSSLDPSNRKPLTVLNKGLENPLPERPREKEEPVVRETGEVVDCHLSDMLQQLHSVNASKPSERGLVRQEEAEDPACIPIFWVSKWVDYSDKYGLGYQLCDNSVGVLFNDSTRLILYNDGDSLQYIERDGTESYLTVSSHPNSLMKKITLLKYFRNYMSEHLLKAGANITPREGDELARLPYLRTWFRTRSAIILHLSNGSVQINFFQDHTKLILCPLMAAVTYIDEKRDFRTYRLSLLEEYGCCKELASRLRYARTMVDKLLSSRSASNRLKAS

Structure (SMILES): COc1ccc2c(c1)[C@]1(C[C@H]1c1ccc3c(/C=C/c4ccc(CN5C[C@@H](C)O[C@@H](C)C5)cc4)n[nH]c3c1)C(=O)N2 [OCIFISERTIB]
- EC50 [1]: 0.466 µM
- IC50 [2]: > 50 µM
- EC50 [3]: 1.1 µM
- IC50 [4]: > 50 µM
- IC50 [5]: > 50 µM
